Measured values taken from patent US4408054A, “Oximes of 4-benzoyl-piperidines” (Hoechst-Roussel Pharmaceuticals Inc., priority 1982, dated 1983).

The compounds below were run on mice (assay: phenyl-p-quinone writhing assay in mice (analgesia)). Settings: Mus musculus, sc, read-out: ED50 (subcutaneous dose effecting an approximately 50% inhibition of writhing).
Type: in vivo
Description: The 3-(4-piperidyl)-1,2-benzisoxazoles of the present invention are useful as analgetics due to their ability to alleviate pain in mammals. […] Exptl. Biol Med., 95 729 (1957)]. Thus, for instance, the subcutaneous dose effecting an approximately 50% inhibition of writhing (ED50) in mice produced in this assay is as follows: […]

SMILES | ED50
CN1CCC(c2noc3ccccc23)CC1.Cl [3-(1-Methyl-4-piperidyl)-1,2-benzisoxazole hydrochloride] | 0.415 mg/kg
Cc1ccc2onc(C3CCN(C)CC3)c2c1.O=C(O)/C=C/C(=O)O [3-(1-Methyl-4-piperidyl)-5-methyl-1,2-benzisoxazole fumarate] | 0.566 mg/kg
Cl.c1ccc2c(C3CCNCC3)noc2c1 [3-(4-Piperidyl)-1,2-benzisoxazole hydrochloride] | 0.517 mg/kg
Cl.Clc1ccc2c(C3CCNCC3)noc2c1 [3-(4-Piperidyl)-6-chloro-1,2-benzisoxazole hydrochloride] | 5.6 mg/kg
Cl.Fc1ccc2c(C3CCNCC3)noc2c1 [3-(4-Piperidyl)-6-fluoro-1,2-benzisoxazole hydrochloride] | 1.79 mg/kg
CC(C)=CCN1CCC2(C)c3cc(O)ccc3CC1C2C (centres unmarked) [pentazocine, reference compound] | 1.3 mg/kg
CCC(=O)O[C@](Cc1ccccc1)(c1ccccc1)[C@H](C)CN(C)C [propoxyphene, reference compound] | 3.9 mg/kg

Same assay, conditions: Mus musculus, sc; mice, subcutaneous, phenyl-p-quinone writhing; read-out: ED50 (subcutaneous dose effecting an approximately 50% inhibition of writhing)

SMILES | ED50
C=CCN1CCC(c2noc3ccccc23)CC1.Cl [3-(1-Allyl-4-piperidyl)-1,2-benzisoxazole hydrochloride] | 1.06 mg/kg
C=CCN1CCC(c2noc3cc(F)ccc23)CC1.Cl [3-(1-Allyl-4-piperidyl)-6-fluoro-1,2-benzisoxazole hydrochloride] | 0.455 mg/kg
CN(C)CCCN1CCC(c2noc3ccccc23)CC1.O=C(O)/C=C/C(=O)O.O=C(O)/C=C/C(=O)O [3-[1-(3-Dimethylaminopropyl)-4-piperidyl]-1,2-benzisoxazole difumarate] | 7.4 mg/kg
Cl.c1ccc(CCN2CCC(c3noc4ccccc34)CC2)cc1 [3-[1-(β-Phenylethyl)-4-piperidyl]-1,2-benzisoxazole hydrochloride] | 0.386 mg/kg
